The record followed here is ChEMBL document CHEMBL4627352, “New acrylamide-sulfisoxazole conjugates as dihydropteroate synthase inhibitors” (Bioorg Med Chem, 2020).

≈ marks a conversion by molar mass, not a printed value. Calls of active or inactive are those of the source. The calls are words filed in the database; no cut-off is given here.

One experiment concerns Proteus vulgaris. In words: Inhibition of DHPS in Proteus vulgaris assessed as antibacterial activity by measuring inhibition zone at 5 mg/mL incubated for 24 hrs by disk diffusion method. In general terms: Agar diffusion results depend on both activity and mobility in agar.
Experiment [1] relates to Escherichia coli ATCC 25922. In words: Inhibition of DHPS in Escherichia coli ATCC 25922 assessed as inhibition of bacterial growth incubated for 24 hrs in presence of folate precursor, pABA by microbroth dilution method. Background: Broth dilution looks for growth in wells or tubes with falling amounts of substance.
Experiment [2] has as its system Klebsiella pneumoniae. In words: Inhibition of DHPS in Klebsiella pneumoniae assessed as antibacterial activity by measuring inhibition zone at 5 mg/mL incubated for 24 hrs by disk diffusion method.
The subject of experiment [3] is Syncephalastrum racemosum. In words: Inhibition of DHPS in Syncephalastrum racemosum assessed as antifungal activity by measuring inhibition zone at 5 mg/mL incubated for 48 hrs by disk diffusion method.
In experiment [4] the test system is Staphylococcus epidermidis. In words: Inhibition of DHPS in Staphylococcus epidermidis assessed as antibacterial activity by measuring inhibition zone at 5 mg/mL incubated for 24 hrs by disk diffusion method.
Experiment [5] relates to Escherichia coli ATCC 25922. In words: Inhibition of DHPS in Escherichia coli ATCC 25922 assessed as inhibition of bacterial growth incubated for 24 hrs in presence of folate dependent metabolite, methionine by microbroth dilution method.
In experiment [6] the test system is Aspergillus fumigatus. Nature of the experiment: Inhibition of DHPS in Aspergillus fumigatus assessed as antifungal activity by measuring inhibition zone at 5 mg/mL incubated for 48 hrs by disk diffusion method.
Experiment [7] relates to Bacillus subtilis. Nature of the experiment: Inhibition of DHPS in Bacillus subtilis assessed as antibacterial activity by measuring inhibition zone at 5 mg/mL incubated for 24 hrs by disk diffusion method.
The test system of experiment [8] is Geotrichum candidum. In words: Inhibition of DHPS in Geotrichum candidum assessed as antifungal activity by measuring inhibition zone at 5 mg/mL incubated for 48 hrs by disk diffusion method.
In experiment [9] the test system is Streptococcus pneumoniae. In words: Inhibition of DHPS in Streptococcus pneumoniae assessed as antibacterial activity by measuring inhibition zone at 5 mg/mL incubated for 24 hrs by disk diffusion method.
Experiment [10] deals with Escherichia coli. Nature of the experiment: Inhibition of DHPS in Escherichia coli assessed as antibacterial activity by measuring inhibition zone at 5 mg/mL incubated for 24 hrs by disk diffusion method.
Experiment [11] has as its system Staphylococcus epidermidis. Nature of the experiment: Inhibition of DHPS in Staphylococcus epidermidis assessed as antibacterial activity by measuring inhibition of bacterial growth incubated for 24 hrs by microbroth dilution method.
The subject of experiment [12] is Klebsiella pneumoniae. In words: Inhibition of DHPS in Klebsiella pneumoniae assessed as antibacterial activity by measuring inhibition of bacterial growth incubated for 24 hrs by microbroth dilution method.
In experiment [13] the test system is Streptococcus pneumoniae. In words: Inhibition of DHPS in Streptococcus pneumoniae assessed as antibacterial activity by measuring inhibition of bacterial growth incubated for 24 hrs by microbroth dilution method.
Experiment [14] deals with Bacillus subtilis. In words: Inhibition of DHPS in Bacillus subtilis assessed as antibacterial activity by measuring inhibition of bacterial growth incubated for 24 hrs by microbroth dilution method.
The test system of experiment [15] is Geotrichum candidum. In words: Inhibition of DHPS in Geotrichum candidum assessed as antifungal activity by measuring inhibition of fungal growth incubated for 48 hrs by microbroth dilution method.
For experiment [16], the system named is Syncephalastrum racemosum. In words: Inhibition of DHPS in Syncephalastrum racemosum assessed as antifungal activity by measuring inhibition of fungal growth incubated for 48 hrs by microbroth dilution method.
Experiment [17] deals with Aspergillus fumigatus. Nature of the experiment: Inhibition of DHPS in Aspergillus fumigatus assessed as antifungal activity by measuring inhibition of fungal growth incubated for 48 hrs by microbroth dilution method.
Experiment [18] has as its system Escherichia coli. Nature of the experiment: Inhibition of DHPS in Escherichia coli assessed as antibacterial activity by measuring inhibition of bacterial growth incubated for 24 hrs by microbroth dilution method.

On to `CCS/C(NC12CC3CC(CC(C3)C1)C2)=C(\C#N)C(=O)Nc1ccc(S(=O)(=O)Nc2onc(C)c2C)cc1`, for which the “inhibition zone (IZ)” value (in the experiment on Proteus vulgaris; in the experiment on Klebsiella pneumoniae [2]; in experiment [3]; in experiment [4]; in the experiment with Aspergillus fumigatus [6]; in the experiment on Bacillus subtilis [7]) was “inactive” throughout. For the same compound, the “inhibition zone (IZ)” value in the experiment on Geotrichum candidum [8], in the experiment on Streptococcus pneumoniae [9] and with Escherichia coli [10] was “inactive” each time. For the same compound, the inhibition entry in experiment [1] and in experiment [5] was “inactive” throughout.

Take `CC(=O)OC[C@H]1O[C@@H](S/C(Nc2ccccc2)=C(\C#N)C(=O)Nc2ccc(S(=O)(=O)Nc3onc(C)c3C)cc2)[C@H](OC(C)=O)[C@@H](OC(C)=O)[C@@H]1OC(C)=O`: the inhibition zone (IZ) in the experiment with Proteus vulgaris was determined as 8.3 mm; with Klebsiella pneumoniae [2], 14.2 mm; in experiment [4] it was 18.9 mm; in the experiment on Bacillus subtilis [7], 12.4 mm; in the experiment on Streptococcus pneumoniae [9], 10.6 mm; in the experiment on Escherichia coli [10] it was 10.6 mm. The inhibition entry in [1] and in [5] was “inactive” in each case. In addition, the values for the MIC (in experiment [11]; in the experiment with Klebsiella pneumoniae [12]) were 15.6 µg/mL (≈ 19.5 µM) and 62.5 µg/mL (≈ 78.1 µM), respectively. Moreover, the “inhibition zone (IZ)” value (in experiment [3]; with Aspergillus fumigatus [6]; in the experiment on Geotrichum candidum [8]) was “inactive” each time.

As for `CC1(C)S[C@@H]2[C@H](NC(=O)[C@H](N)c3ccccc3)C(=O)N2[C@H]1C(=O)O`, the values for the MIC (in experiment [11]; in the experiment with Streptococcus pneumoniae [13]; with Bacillus subtilis [14]) were 0.06 µg/mL (≈ 0.172 µM), 0.12 µg/mL (≈ 0.343 µM) and 0.24 µg/mL (≈ 0.687 µM), respectively. Further, the inhibition zone (IZ) in experiment [4] was 25.4 mm; in the experiment with Bacillus subtilis [7] it was 32.4 mm; in the experiment with Streptococcus pneumoniae [9], 23.8 mm.

In the case of `C=CCN/C(SC)=C(/C#N)C(=O)Nc1ccc(S(=O)(=O)Nc2onc(C)c2C)cc1`, the “inhibition zone (IZ)” value (in the experiment with Proteus vulgaris; with Klebsiella pneumoniae [2]; in experiment [4]; in the experiment with Bacillus subtilis [7]; with Streptococcus pneumoniae [9]; in the experiment with Escherichia coli [10]) was “inactive” in each case. Besides, the inhibition entry in experiment [1] and in [5] was “inactive” in each case. Moreover, the MIC turned out to be 15.6 µg/mL (≈ 34.9 µM) in the experiment with Geotrichum candidum [15] and 62.5 µg/mL (≈ 140 µM) in [16]. Further, the results for the inhibition zone (IZ) (in experiment [3]; with Aspergillus fumigatus [6]; with Geotrichum candidum [8]) were 15.7 mm, 12.6 mm and 18.2 mm, respectively.

As for `C[C@@H]1[C@H](O)[C@@H](C)/C=C/C=C/C=C/C=C/C=C/C=C/C=C/[C@H](O[C@@H]2O[C@H](C)[C@@H](O)[C@H](N)[C@@H]2O)C[C@@H]2O[C@](O)(C[C@@H](O)C[C@@H](O)[C@H](O)CC[C@@H](O)C[C@@H](O)CC(=O)O[C@H]1C)C[C@H](O)[C@H]2C(=O)O`, the values for the MIC (in the experiment on Geotrichum candidum [15]; in the experiment with Aspergillus fumigatus [17]; in experiment [16]) were 0.007 µg/mL (≈ 0.00758 µM), 0.12 µg/mL (≈ 0.13 µM) and 7.81 µg/mL (≈ 8.45 µM), respectively. In addition, the inhibition zone (IZ) in [3] amounted to 19.7 mm; in the experiment on Aspergillus fumigatus [6], 23.7 mm; with Geotrichum candidum [8], 28.7 mm.

For `CC(=O)OC[C@H]1O[C@@H](S/C(Nc2ccccc2)=C(\C#N)C(=O)Nc2ccc(S(=O)(=O)Nc3onc(C)c3C)cc2)[C@H](OC(C)=O)[C@@H](OC(C)=O)[C@H]1OC(C)=O`, the inhibition zone (IZ) in the experiment with Proteus vulgaris came out at 11.2 mm; in the experiment on Klebsiella pneumoniae [2], 15.8 mm; in experiment [4], 14.2 mm; in the experiment with Bacillus subtilis [7], 19.8 mm; in the experiment on Streptococcus pneumoniae [9], 15.1 mm; in the experiment with Escherichia coli [10] it was 13.2 mm. For the same compound, the MIC in the experiment with Escherichia coli [18] came out at 125 µg/mL (≈ 156 µM); in experiment [11] it was 125 µg/mL (≈ 156 µM); in the experiment on Streptococcus pneumoniae [13], 62.5 µg/mL (≈ 78.1 µM); in the experiment on Klebsiella pneumoniae [12], 62.5 µg/mL (≈ 78.1 µM); in the experiment on Bacillus subtilis [14], 1.95 µg/mL (≈ 2.44 µM). Further, the inhibition result in experiment [1] and in [5] was “inactive” throughout. Further, the “inhibition zone (IZ)” value (in [3]; in the experiment on Aspergillus fumigatus [6]; with Geotrichum candidum [8]) was “inactive” each time.

As to `Cc1noc(NS(=O)(=O)c2ccc(N)cc2)c1C`, the “inhibition zone (IZ)” value in the experiment with Proteus vulgaris is “inactive”. The MIC came to 62.5 µg/mL (≈ 234 µM) in the experiment with Escherichia coli [18]; 7.81 µg/mL (≈ 29.2 µM) in [11]; 1.95 µg/mL (≈ 7.29 µM) in the experiment with Streptococcus pneumoniae [13]; 15.6 µg/mL (≈ 58.5 µM) in the experiment with Geotrichum candidum [15]; 62.5 µg/mL (≈ 234 µM) with Aspergillus fumigatus [17]; 7.81 µg/mL (≈ 29.2 µM) in the experiment with Klebsiella pneumoniae [12]. Moreover, the MIC was 0.98 µg/mL (≈ 3.67 µM) in the experiment with Bacillus subtilis [14] and 125 µg/mL (≈ 468 µM) in experiment [16]. In addition, the inhibition zone (IZ) amounted to 18.2 mm in the experiment on Klebsiella pneumoniae [2]; 13.2 mm in experiment [3]; 17.5 mm in experiment [4]; 15.1 mm in the experiment with Aspergillus fumigatus [6]; 20.8 mm in the experiment on Bacillus subtilis [7]; 16.8 mm with Geotrichum candidum [8]. In addition, the inhibition zone (IZ) amounted to 19.6 mm in the experiment with Streptococcus pneumoniae [9] and 15.2 mm in the experiment with Escherichia coli [10].

In the case of `CN/C(SC)=C(/C#N)C(=O)Nc1ccc(S(=O)(=O)Nc2onc(C)c2C)cc1`, the “inhibition zone (IZ)” value (in the experiment with Proteus vulgaris; with Klebsiella pneumoniae [2]; in experiment [3]; in experiment [4]; in the experiment on Aspergillus fumigatus [6]; in the experiment on Bacillus subtilis [7]) was “inactive” each time. Further, the “inhibition zone (IZ)” value in the experiment with Geotrichum candidum [8], in the experiment with Streptococcus pneumoniae [9] and with Escherichia coli [10] was “inactive” throughout. Further, the inhibition result in [1] and in experiment [5] was “inactive” in each case.

For `CCS/C(Nc1ccccc1)=C(\C#N)C(=O)Nc1ccc(S(=O)(=O)Nc2onc(C)c2C)cc1`, the “inhibition zone (IZ)” value (in the experiment with Proteus vulgaris; in the experiment on Klebsiella pneumoniae [2]; in experiment [3]; in the experiment with Aspergillus fumigatus [6]; in the experiment with Geotrichum candidum [8]; in the experiment on Streptococcus pneumoniae [9]) was “inactive” in each case. Further, the “inhibition zone (IZ)” value in the experiment with Escherichia coli [10] is “inactive”. Further, the inhibition result in experiment [1] and in experiment [5] was “inactive” each time. In addition, the inhibition zone (IZ) in [4] was determined as 10.1 mm; in the experiment with Bacillus subtilis [7] it was 11.2 mm.

For `CS/C(Nc1ccccc1)=C(\C#N)C(=O)Nc1ccc(S(=O)(=O)Nc2onc(C)c2C)cc1`, the “inhibition zone (IZ)” value (in the experiment with Proteus vulgaris; in the experiment on Klebsiella pneumoniae [2]; in [3]; in [4]; in the experiment with Aspergillus fumigatus [6]; with Bacillus subtilis [7]) was “inactive” in each case. In addition, the “inhibition zone (IZ)” value with Geotrichum candidum [8], in the experiment on Streptococcus pneumoniae [9] and in the experiment with Escherichia coli [10] was “inactive” throughout. Further, the inhibition result in [1] and in experiment [5] was “inactive” throughout.

With `Cc1noc(NS(=O)(=O)c2ccc(NC(=O)/C(C#N)=C(/S)NC34CC5CC(CC(C5)C3)C4)cc2)c1C`, the inhibition zone (IZ) in the experiment on Proteus vulgaris stood at 11.7 mm; with Klebsiella pneumoniae [2] it was 16.2 mm; in [3], 13.6 mm; in experiment [4] it was 16.2 mm; in the experiment on Aspergillus fumigatus [6] it was 14.9 mm; with Bacillus subtilis [7], 17.4 mm. The inhibition zone (IZ) with Geotrichum candidum [8] came to 14.7 mm; in the experiment on Streptococcus pneumoniae [9], 16.9 mm; with Escherichia coli [10] it was 13.3 mm. Besides, the MIC in the experiment on Escherichia coli [18] came out at 62.5 µg/mL (≈ 118 µM); in [11], 62.5 µg/mL (≈ 118 µM); with Streptococcus pneumoniae [13], 31.2 µg/mL (≈ 59.2 µM); with Geotrichum candidum [15] it was 125 µg/mL (≈ 237 µM); in the experiment on Aspergillus fumigatus [17] it was 62.5 µg/mL (≈ 118 µM); in the experiment with Klebsiella pneumoniae [12], 62.5 µg/mL (≈ 118 µM). In the experiment on Bacillus subtilis [14], the MIC worked out at 31.2 µg/mL (≈ 59.2 µM). Also, the inhibition result in [1] and in [5] was “inactive” throughout.

As to `Cc1noc(NS(=O)(=O)c2ccc(NC(=O)c3c(N)n[nH]c3Nc3ccccc3)cc2)c1C`, the “inhibition zone (IZ)” value (in the experiment on Proteus vulgaris; with Klebsiella pneumoniae [2]; in experiment [3]; with Aspergillus fumigatus [6]; in the experiment on Geotrichum candidum [8]; in the experiment with Streptococcus pneumoniae [9]) was “inactive” in each case. Moreover, the “inhibition zone (IZ)” value in the experiment on Escherichia coli [10] was “inactive”. In addition, the inhibition result in experiment [1] and in experiment [5] was “inactive” each time. Besides, in [11], the MIC turned out to be 15.6 µg/mL (≈ 33.4 µM). Moreover, the inhibition zone (IZ) in experiment [4] was 13.4 mm; with Bacillus subtilis [7] it was 12.6 mm.
